Data as given in patent US20090042726A1, “Novel Herbicides” (SYNGENTA LIMITED, priority 2005, published 2009).

System: Monocotyledonous and dicotyledonous test plants
Experiment: Herbicidal action, application pre-emergence (Example B1)
Type: in vivo
Design: key: 10=total damage to plant; 0=no damage to plant
Conditions: 1000 g/ha, evaluated after 9 or 13 days; for AGSTE herbicidal action (damage score 0-10): Agrostis-tenius; for AMARE herbicidal action (damage score 0-10): Amaranthus retroflexus; for DIGSA herbicidal action (damage score 0-10): Digitaria sanguinalis; for POATR herbicidal action (damage score 0-10): Poa trivialis; for SETIT herbicidal action (damage score 0-10): Setaria italica
Protocol: Monocotyledonous and dicotyledonous test plants were sown in sterilised standard soil in seed trays each having 96 cells. After one day (pre-emergence) under controlled conditions in a climatic chamber (cultivation at 23/17° C., day/night; 13 hours light; 50-60% humidity; after application at 24/19° C., day/night), the plants were treated with an aqueous spray solution of 1000 mg/l of the active ingredient used (including 10% DMSO as solvent). The plants were grown on in the climatic chamber until the test was evaluated (10=total damage to plant, 0=no damage to plant) after 9 or 13 days.

Structure (SMILES): Cn1nc(C(F)(F)F)c(C[S+]([O-])C2=NOC(C)(C)C2F)c1OC(F)F (single isomer, unassigned) [2.25]
- AGSTE herbicidal action (damage score 0-10): 10
- AMARE herbicidal action (damage score 0-10): 10
- DIGSA herbicidal action (damage score 0-10): 10
- POATR herbicidal action (damage score 0-10): 10
- SETIT herbicidal action (damage score 0-10): 10

Structure (SMILES): Cn1nc(OC(F)F)c(C[S+]([O-])C2=NOC(C)(C)C2F)c1C(F)(F)F (single isomer, unassigned) [2.29]
- AGSTE herbicidal action (damage score 0-10): 9
- AMARE herbicidal action (damage score 0-10): 8
- DIGSA herbicidal action (damage score 0-10): 0
- POATR herbicidal action (damage score 0-10): 10
- SETIT herbicidal action (damage score 0-10): 9

Structure (SMILES): Cn1nc(OC(F)F)c(C[S+]([O-])C2=NOC(C)(C)C2F)c1C(F)(F)F (single isomer, unassigned) [2.30]
- AGSTE herbicidal action (damage score 0-10): 10
- AMARE herbicidal action (damage score 0-10): 9
- DIGSA herbicidal action (damage score 0-10): 10
- POATR herbicidal action (damage score 0-10): 9
- SETIT herbicidal action (damage score 0-10): 9

Structure (SMILES): Cn1nc(OCC(F)(F)F)c(C[S+]([O-])C2=NOC(C)(C)C2F)c1C(F)(F)F (single isomer, unassigned) [2.42]
- AGSTE herbicidal action (damage score 0-10): 0
- AMARE herbicidal action (damage score 0-10): 8
- DIGSA herbicidal action (damage score 0-10): 8
- POATR herbicidal action (damage score 0-10): 8
- SETIT herbicidal action (damage score 0-10): 8

Structure (SMILES): Cn1nc(OCC(F)(F)F)c(C[S+]([O-])C2=NOC(C)(C)C2F)c1C(F)(F)F (single isomer, unassigned) [2.43]
- AGSTE herbicidal action (damage score 0-10): 0
- AMARE herbicidal action (damage score 0-10): 8
- DIGSA herbicidal action (damage score 0-10): 9
- POATR herbicidal action (damage score 0-10): 10
- SETIT herbicidal action (damage score 0-10): 8

Structure (SMILES): Cc1nn(C)c(OCC(F)(F)F)c1C[S+]([O-])C1=NOC(C)(C)C1F (single isomer, unassigned) [2.61]
- AGSTE herbicidal action (damage score 0-10): 10
- AMARE herbicidal action (damage score 0-10): 6
- DIGSA herbicidal action (damage score 0-10): 9
- POATR herbicidal action (damage score 0-10): 4

Structure (SMILES): Cn1nc(C[S+]([O-])C2=NOC(C)(C)C2F)c(C(F)(F)F)c1C#N (single isomer, unassigned) [4.07]
- AGSTE herbicidal action (damage score 0-10): 10
- AMARE herbicidal action (damage score 0-10): 9
- DIGSA herbicidal action (damage score 0-10): 9
- POATR herbicidal action (damage score 0-10): 10

Structure (SMILES): Cn1nc(C[S+]([O-])C2=NOC(C)(C)C2F)c(C(F)(F)F)c1C#N (single isomer, unassigned) [4.08]
- AGSTE herbicidal action (damage score 0-10): 10
- AMARE herbicidal action (damage score 0-10): 5
- DIGSA herbicidal action (damage score 0-10): 9
- POATR herbicidal action (damage score 0-10): 8

Structure (SMILES): Cc1nn(C)nc1C[S+]([O-])C1=NOC(C)(C)C1F (single isomer, unassigned) [7.02]
- AGSTE herbicidal action (damage score 0-10): 10
- AMARE herbicidal action (damage score 0-10): 0
- DIGSA herbicidal action (damage score 0-10): 9
- POATR herbicidal action (damage score 0-10): 10
- SETIT herbicidal action (damage score 0-10): 9

Structure (SMILES): Cc1nn(C)nc1C[S+]([O-])C1=NOC(C)(C)C1F (single isomer, unassigned) [7.03]
- AGSTE herbicidal action (damage score 0-10): 8
- AMARE herbicidal action (damage score 0-10): 6
- DIGSA herbicidal action (damage score 0-10): 10
- POATR herbicidal action (damage score 0-10): 10
- SETIT herbicidal action (damage score 0-10): 9

Structure (SMILES): C=CCn1nc(C[S+]([O-])C2=NOC(C)(C)C2F)c(C(F)(F)F)n1 (single isomer, unassigned) [7.08]
- AGSTE herbicidal action (damage score 0-10): 10
- AMARE herbicidal action (damage score 0-10): 10
- DIGSA herbicidal action (damage score 0-10): 10
- POATR herbicidal action (damage score 0-10): 10

Structure (SMILES): C=CCn1nc(C[S+]([O-])C2=NOC(C)(C)C2F)c(C(F)(F)F)n1 (single isomer, unassigned) [7.09]
- AGSTE herbicidal action (damage score 0-10): 10
- AMARE herbicidal action (damage score 0-10): 10
- DIGSA herbicidal action (damage score 0-10): 10
- POATR herbicidal action (damage score 0-10): 10

Structure (SMILES): CC1(C)ON=C([S+]([O-])Cc2nn(C3CCCC3)nc2C(F)(F)F)C1F (single isomer, unassigned) [7.12]
- AGSTE herbicidal action (damage score 0-10): 10
- AMARE herbicidal action (damage score 0-10): 10
- DIGSA herbicidal action (damage score 0-10): 9
- POATR herbicidal action (damage score 0-10): 10

Structure (SMILES): CC(C)n1nc(C[S+]([O-])C2=NOC(C)(C)C2F)c(C(F)(F)F)n1 (single isomer, unassigned) [7.25]
- AGSTE herbicidal action (damage score 0-10): 10
- AMARE herbicidal action (damage score 0-10): 9
- DIGSA herbicidal action (damage score 0-10): 9
- POATR herbicidal action (damage score 0-10): 10

Structure (SMILES): CC(C)n1nc(C[S+]([O-])C2=NOC(C)(C)C2F)c(C(F)(F)F)n1 (single isomer, unassigned) [7.26]
- AGSTE herbicidal action (damage score 0-10): 9
- AMARE herbicidal action (damage score 0-10): 0
- DIGSA herbicidal action (damage score 0-10): 5
- POATR herbicidal action (damage score 0-10): 6

Structure (SMILES): Cc1nc(C[S+]([O-])C2=NOC(C)(C)C2F)n(C)n1 (single isomer, unassigned) [8.02]
- AGSTE herbicidal action (damage score 0-10): 10
- AMARE herbicidal action (damage score 0-10): 4
- DIGSA herbicidal action (damage score 0-10): 10
- POATR herbicidal action (damage score 0-10): 10

Structure (SMILES): Cc1nc(C[S+]([O-])C2=NOC(C)(C)C2F)n(C)n1 (single isomer, unassigned) [8.03]
- AGSTE herbicidal action (damage score 0-10): 10
- AMARE herbicidal action (damage score 0-10): 0
- DIGSA herbicidal action (damage score 0-10): 9
- POATR herbicidal action (damage score 0-10): 8

Structure (SMILES): CC1(C)ON=C(S(=O)(=O)Cc2ccccc2OC(F)(F)F)C1F (stereo not shown) [1.11]
- AGSTE herbicidal action (damage score 0-10): 10
- AMARE herbicidal action (damage score 0-10): 7
- DIGSA herbicidal action (damage score 0-10): 10
- POATR herbicidal action (damage score 0-10): 10
- SETIT herbicidal action (damage score 0-10): 8

Structure (SMILES): CC1(C)ON=C(S(=O)(=O)Cc2c(F)cccc2F)C1F (stereo not shown) [1.17]
- AGSTE herbicidal action (damage score 0-10): 10
- AMARE herbicidal action (damage score 0-10): 10
- DIGSA herbicidal action (damage score 0-10): 8
- POATR herbicidal action (damage score 0-10): 10
- SETIT herbicidal action (damage score 0-10): 8

Structure (SMILES): Cn1nc(C(F)(F)F)c(CS(=O)(=O)C2=NOC(C)(C)C2F)c1OCC(F)(F)F (stereo not shown) [2.11]
- AGSTE herbicidal action (damage score 0-10): 10
- AMARE herbicidal action (damage score 0-10): 10
- DIGSA herbicidal action (damage score 0-10): 9
- POATR herbicidal action (damage score 0-10): 10
- SETIT herbicidal action (damage score 0-10): 4

Structure (SMILES): Cn1nc(C(F)(F)F)c(CS(=O)(=O)C2=NOC(C)(C)C2Cl)c1OC(F)F (stereo not shown) [2.18]
- AGSTE herbicidal action (damage score 0-10): 10
- AMARE herbicidal action (damage score 0-10): 8
- DIGSA herbicidal action (damage score 0-10): 5
- POATR herbicidal action (damage score 0-10): 9
- SETIT herbicidal action (damage score 0-10): 8

Structure (SMILES): Cn1nc(C(F)(F)F)c(C[S+]([O-])C2=NOC(C)(C)C2(Cl)Cl)c1OCC(F)(F)F (stereo not shown) [2.20]
- AGSTE herbicidal action (damage score 0-10): 5
- AMARE herbicidal action (damage score 0-10): 4
- DIGSA herbicidal action (damage score 0-10): 9
- POATR herbicidal action (damage score 0-10): 8
- SETIT herbicidal action (damage score 0-10): 7

Structure (SMILES): Cn1nc(OC(F)F)c(CS(=O)(=O)C2=NOC(C)(C)C2F)c1C(F)(F)F (stereo not shown) [2.31]
- AGSTE herbicidal action (damage score 0-10): 10
- AMARE herbicidal action (damage score 0-10): 10
- DIGSA herbicidal action (damage score 0-10): 10
- POATR herbicidal action (damage score 0-10): 10
- SETIT herbicidal action (damage score 0-10): 10

Structure (SMILES): Cn1cc(CS(=O)(=O)C2=NOC(C)(C)C2F)c(C(F)(F)F)n1 (stereo not shown) [2.34]
- AGSTE herbicidal action (damage score 0-10): 10
- AMARE herbicidal action (damage score 0-10): 10
- DIGSA herbicidal action (damage score 0-10): 10
- POATR herbicidal action (damage score 0-10): 10
- SETIT herbicidal action (damage score 0-10): 9

Structure (SMILES): Cn1nc(OCC(F)(F)F)c(CS(=O)(=O)C2=NOC(C)(C)C2F)c1C(F)(F)F (stereo not shown) [2.44]
- AGSTE herbicidal action (damage score 0-10): 0
- AMARE herbicidal action (damage score 0-10): 10
- DIGSA herbicidal action (damage score 0-10): 7
- POATR herbicidal action (damage score 0-10): 10
- SETIT herbicidal action (damage score 0-10): 10

Structure (SMILES): CCn1cc(CS(=O)(=O)C2=NOC(C)(C)C2F)c(C(F)(F)F)n1 (stereo not shown) [2.47]
- AGSTE herbicidal action (damage score 0-10): 10
- AMARE herbicidal action (damage score 0-10): 10
- DIGSA herbicidal action (damage score 0-10): 9
- POATR herbicidal action (damage score 0-10): 10

Structure (SMILES): C#CCn1cc(CS(=O)(=O)C2=NOC(C)(C)C2F)c(C(F)(F)F)n1 (stereo not shown) [2.50]
- AGSTE herbicidal action (damage score 0-10): 10
- AMARE herbicidal action (damage score 0-10): 10
- DIGSA herbicidal action (damage score 0-10): 10
- POATR herbicidal action (damage score 0-10): 10

Structure (SMILES): C=CCn1cc(CS(=O)(=O)C2=NOC(C)(C)C2F)c(C(F)(F)F)n1 (stereo not shown) [2.53]
- AGSTE herbicidal action (damage score 0-10): 10
- AMARE herbicidal action (damage score 0-10): 10
- DIGSA herbicidal action (damage score 0-10): 9
- POATR herbicidal action (damage score 0-10): 10

Structure (SMILES): Cn1nc(C(F)(F)F)c(CS(=O)(=O)C2=NOC(C)(C)C2F)c1F (stereo not shown) [2.56]
- AGSTE herbicidal action (damage score 0-10): 10
- AMARE herbicidal action (damage score 0-10): 10
- DIGSA herbicidal action (damage score 0-10): 10
- POATR herbicidal action (damage score 0-10): 10

Structure (SMILES): COCCOc1c(CS(=O)(=O)C2=NOC(C)(C)C2F)c(C(F)(F)F)nn1C (stereo not shown) [2.59]
- AGSTE herbicidal action (damage score 0-10): 10
- AMARE herbicidal action (damage score 0-10): 10
- DIGSA herbicidal action (damage score 0-10): 10
- POATR herbicidal action (damage score 0-10): 10

Structure (SMILES): Cc1nn(C)c(OCC(F)(F)F)c1CS(=O)(=O)C1=NOC(C)(C)C1F (stereo not shown) [2.63]
- AGSTE herbicidal action (damage score 0-10): 10
- AMARE herbicidal action (damage score 0-10): 10
- DIGSA herbicidal action (damage score 0-10): 8
- POATR herbicidal action (damage score 0-10): 10

Structure (SMILES): Cc1nc(C(F)(F)F)ccc1CS(=O)(=O)C1=NOC(C)(C)C1F (stereo not shown) [3.03]
- AGSTE herbicidal action (damage score 0-10): 10
- AMARE herbicidal action (damage score 0-10): 10
- DIGSA herbicidal action (damage score 0-10): 0
- POATR herbicidal action (damage score 0-10): 10
- SETIT herbicidal action (damage score 0-10): 9

Structure (SMILES): CC1(C)ON=C(S(=O)(=O)Cc2cccnc2Cl)C1F (stereo not shown) [3.06]
- AGSTE herbicidal action (damage score 0-10): 10
- AMARE herbicidal action (damage score 0-10): 8
- DIGSA herbicidal action (damage score 0-10): 0
- POATR herbicidal action (damage score 0-10): 10
